Counter-ions that a name gives are not always drawn.

The text below walks through data of patent US9067911B2, “Piperidine derivatives” (Hoffmann-La Roche Inc., priority 2009, dated 2015).

For the assay, the target named is T1, mGlyT-1b (Mus musculus, UniProt P28571).
T1 construct: host or cells: Flp-in-CHO
T1 sequence (P28571 1-651 isoform P28571-2): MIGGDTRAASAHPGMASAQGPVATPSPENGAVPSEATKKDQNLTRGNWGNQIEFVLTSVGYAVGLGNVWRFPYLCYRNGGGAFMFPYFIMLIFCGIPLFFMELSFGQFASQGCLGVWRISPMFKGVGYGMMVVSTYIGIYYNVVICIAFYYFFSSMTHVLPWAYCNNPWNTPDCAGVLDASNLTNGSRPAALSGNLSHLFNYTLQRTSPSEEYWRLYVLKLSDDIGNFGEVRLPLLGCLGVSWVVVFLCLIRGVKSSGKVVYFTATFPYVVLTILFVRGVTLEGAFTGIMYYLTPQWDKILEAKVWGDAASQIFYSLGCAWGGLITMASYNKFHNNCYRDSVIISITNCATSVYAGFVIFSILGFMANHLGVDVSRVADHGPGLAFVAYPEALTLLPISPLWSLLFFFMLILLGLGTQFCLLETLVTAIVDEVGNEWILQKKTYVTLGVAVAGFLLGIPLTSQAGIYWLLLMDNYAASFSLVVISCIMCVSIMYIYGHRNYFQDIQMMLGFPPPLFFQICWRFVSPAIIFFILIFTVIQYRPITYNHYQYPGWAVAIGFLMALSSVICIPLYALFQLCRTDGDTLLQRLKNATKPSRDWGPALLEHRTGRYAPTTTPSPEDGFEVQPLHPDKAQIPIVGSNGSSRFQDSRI
Description: Glycine uptake inhibition assay (mGlyT-1b). It is filed as cell-based. Particulars: [3H]-glycine uptake, Flp-in-CHO cells stably transfected with mGlyT1b cDNA, 20 min preincubation at 22° C. As for the experimental part: Nutrient mixture F-12 (Gibco Life-technologies), fetal bovine serum (FBS) 5%, (Gibco life technologies), Penicillin/Streptomycin 1% (Gibco life technologies), Hygromycin 0.6 mg/ml (Gibco life technologies), Glutamine 1 mM Gibco life technologies)
150 mM NaCl, 10 mM Hepes-Tris, pH 7.4, 1 mM CaCl2, 2.5 mM KCl, 2.5 mM MgSO4, 10 mM (+) D-glucose.
Flp-in™-CHO (Invitrogen Cat n° R758-07) cells stably transfected with mGlyT1b cDNA.
Glycine Uptake Inhibition Assay (mGlyT-1b)
On day 1 mammalian cells, (Flp-in™-CHO), transfected with mGlyT-1b cDNA, were plated at the density of 40,000 cells/well in complete F-12 medium, without hygromycin in 96-well culture plates. On day 2, the medium was aspirated and the cells were washed twice with uptake buffer (UB). The cells were then incubated for 20 min at 22° C. with either (i) no potential competitor, (ii) 10 mM non-radioactive glycine, (iii) a concentration of a potential inhibitor. A range of concentrations of the potential inhibitor was used to generate data for calculating the concentration of inhibitor resulting in 50% of the effect (e.g. IC50, the concentration of the competitor inhibiting glycine uptake of 50%). A solution was then immediately added containing [^3H]-glycine 60 nM (11-16 Ci/mmol) and 25 μM non-radioactive glycine. The plates were incubated with gentle shaking and the reaction was stopped by aspiration of the mixture and washing (three times) with ice-cold UB. The cells were lysed with scintillation liquid, shaken 3 hours and the radioactivity in the cells was counted using a scintillation counter.

In the case of `CCc1cc(C(F)(F)F)ccc1C(=O)N[C@@]1(c2ccccc2)C[C@H](OC)CN(C)C1` (racemic) [Example 125, 2-Ethyl-N-((3R,5S) or (3S,5R)-5-methoxy-1-methyl-3-phenyl-piperidin-3-yl)-4-trifluoromethyl-benzamide], the IC50 (in general, the concentration that inhibits the measured activity by half) came to 0.176 µM.
Take `CCc1cc(C(F)(F)F)cc(C(F)(F)F)c1C(=O)NC1(c2ccccc2)CCCN(C)C1` (racemic) [Example 25, rac-2-Ethyl-N-(1-methyl-3-phenyl-piperidin-3-yl)-4,6-bis-trifluoromethyl-benzamide]: it took 0.126 µM to reach half-maximal inhibition (IC50).
Take `COc1cc(C(F)(F)F)cc(SC)c1C(=O)NC1(c2ccc(F)cn2)CCCN(C)C1` (racemic) [Example 47, rac-N-(5-Fluoro-1′-methyl-1′,4′,5′,6′-tetrahydro-2′H-[2,3′]bipyridinyl-3′-yl)-2-methoxy-6-methylsulfanyl-4-trifluoromethyl-benzamide]: half-maximal inhibition (IC50) required 0.181 µM.
`CO[C@@H]1CN(C)C[C@](NC(=O)c2ccc(C(F)(F)F)cc2C2CC2)(c2ccccc2)C1` (racemic) [Example 126, 2-Cyclopropyl-N-((3R,5S) or (3S,5R)-5-methoxy-1-methyl-3-phenyl-piperidin-3-yl)-4-trifluoromethyl-benzamide]: the IC50 was 0.0312 µM.
The result for `COc1cc(C(F)(F)F)cc(SC)c1C(=O)NC1(c2cccc(C(F)(F)F)c2)CCCN(C)C1` (racemic) [Example 89, rac-2-Methoxy-6-methylsulfanyl-N-[1-methyl-3-(3-trifluoromethyl-phenyl)-piperidin-3-yl]-4-trifluoromethyl-benzamide] reads 0.107 µM; that for `COc1cc(C(F)(F)F)cc(SC)c1C(=O)NC1(c2ccncc2)CCCN(C)C1` (racemic) [Example 71, rac-2-Methoxy-6-methylsulfanyl-N-(1-methyl-1,4,5,6-tetrahydro-2H-[3,4′]bipyridinyl-3-yl)-4-trifluoromethyl-benzamide], 0.0559 µM; that for `COc1cc(C(F)(F)F)cc(SC)c1C(=O)NC1(c2ccc(F)c(C)c2)CCCN(C)C1` (racemic) [Example 97, rac-N-[3-(4-Fluoro-3-methyl-phenyl)-1-methyl-piperidin-3-yl]-2-methoxy-6-methylsulfanyl-4-trifluoromethyl-benzamide], 0.185 µM.
The molecule `CCc1cc(C(F)(F)F)ccc1C(=O)NC1(c2ccncc2)CCCN(C)C1` (racemic) [Example 72, rac-2-Ethyl-N-(1-methyl-1,4,5,6-tetrahydro-2H-[3,4′]bipyridinyl-3-yl)-4-trifluoromethyl-benzamide hydrochloride] registered an IC50 of 0.0369 µM.
In turn, `COc1cc(C(F)(F)F)cc(C(F)(F)F)c1C(=O)NC1(c2ccccc2)CCCN(C)C1` (racemic) [Example 16, rac-2-Methoxy-N-(1-methyl-3-phenyl-piperidin-3-yl)-4,6-bis-trifluoromethyl-benzamide] had an IC50 of 0.138 µM.
Molecule `COc1cc(C(F)(F)F)cc(SC)c1C(=O)NC1(c2ccccc2F)CCCN(C)C1` (single isomer, unassigned) [Example 111, N-[(R or S)-3-(2-Fluoro-phenyl)-1-methyl-piperidin-3-yl]-2-methoxy-6-methylsulfanyl-4-trifluoromethyl-benzamide] came in with an IC50 of 0.0573 µM.
The molecule `COc1cc(C(F)(F)F)cc(SC)c1C(=O)N[C@@]1(c2ccccc2)C[C@H](OC)CN(C)C1` (stereo in doubt) [Example 75, 2-Methoxy-N-((3RS,5SR)-5-methoxy-1-methyl-3-phenyl-piperidin-3-yl)-6-methylsulfanyl-4-trifluoromethyl-benzamide] came in with an IC50 of 0.0538 µM.
`COc1cc(C(F)(F)F)cc(SC)c1C(=O)NC1(c2ccccc2)CCCN(C)C1` (racemic) [Example 18, rac-2-Methoxy-N-(1-methyl-3-phenyl-piperidin-3-yl)-6-methylsulfanyl-4-trifluoromethyl-benzamide] had an IC50 of 0.0244 µM.
Molecule `CCc1cc(C(F)(F)F)ccc1C(=O)NC1(c2ccccc2)CCCN(C)C1` (racemic) [Example 4, rac-2-Ethyl-N-(1-methyl-3-phenyl-piperidin-3-yl)-4-trifluoromethyl-benzamide] registered an IC50 of 0.0264 µM.
For the molecule `CN1CCCC(NC(=O)c2ccc(C(F)(F)F)cc2C2CCC2)(c2ccccc2)C1` (racemic) [Example 66, rac-2-Cyclobutyl-N-(1-methyl-3-phenyl-piperidin-3-yl)-4-trifluoromethyl-benzamide hydrochloride], the IC50 came out at 0.243 µM. This IC50 lies about 9.2-fold higher than the previous one.
The molecule `COc1cc(C(F)(F)F)cc(SC)c1C(=O)NC1(c2ccccc2)CCC(C)(C)N(C)C1` (racemic) [Example 84, rac-2-Methoxy-6-methylsulfanyl-4-trifluoromethyl-N-(1,6,6-trimethyl-3-phenyl-piperidin-3-yl)-benzamide hydrochloride] yielded an IC50 of 0.0173 µM.
With `COc1cc(C(F)(F)F)cc(SC)c1C(=O)NC1(c2ccccc2)CN(C)CC(C)(C)C1` (racemic) [Example 99, rac-2-Methoxy-6-methylsulfanyl-4-trifluoromethyl-N-(1,5,5-trimethyl-3-phenyl-piperidin-3-yl)-benzamide hydrochloride], the IC50 was 0.0366 µM. Against the preceding molecule, the IC50 is about 2.1-fold higher.
For `COc1cc(C(F)(F)F)cc(SC)c1C(=O)NC1(c2ccc(F)cc2F)CCCN(C)C1` (racemic) [Example 67, rac-N-[3-(2,4-Difluoro-phenyl)-1-methyl-piperidin-3-yl]-2-methoxy-6-methylsulfanyl-4-trifluoromethyl-benzamide], it took 0.129 µM to reach half-maximal inhibition (IC50).
The result for `COc1cc(C(F)(F)F)cc(SC)c1C(=O)NC1(C2CCCCC2)CCCN(C)C1` (racemic) [Example 58, rac-N-(3-Cyclohexyl-1-methyl-piperidin-3-yl)-2-methoxy-6-methylsulfanyl-4-trifluoromethyl-benzamide] reads 0.156 µM; that for `CN1CCCC(NC(=O)c2c(F)cc(C(F)(F)F)cc2C(F)(F)F)(c2ccccc2)C1` (racemic) [Example 5, rac-2-Fluoro-N-(1-methyl-3-phenyl-piperidin-3-yl)-4,6-bis-trifluoromethyl-benzamide], 0.107 µM.
Turning to `CN1CC(C)(C)CC(NC(=O)c2ccc(C(F)(F)F)cc2C2CC2)(c2ccccc2)C1` (racemic) [Example 83, rac-2-Cyclopropyl-4-trifluoromethyl-N-(1,5,5-trimethyl-3-phenyl-piperidin-3-yl)-benzamide], the IC50 was 0.03 µM.
In the case of `COc1cc(C(F)(F)F)cc(SC)c1C(=O)N[C@@]1(c2ccccc2)CC[C@@H](C)N(C)C1` (single isomer, unassigned) [Example 119, N-((3R,6R) or (3S,6S)-1,6-Dimethyl-3-phenyl-piperidin-3-yl)-2-methoxy-6-methylsulfanyl-4-trifluoromethyl-benzamide] it was 0.0139 µM; in that of `COc1cc(C(F)(F)F)cc(SC)c1C(=O)NC1(c2ccc(Cl)cc2)CCCN(C)C1` (racemic) [Example 28, rac-N-[3-(4-Chloro-phenyl)-1-methyl-piperidin-3-yl]-2-methoxy-6-methylsulfanyl-4-trifluoromethyl-benzamide], 0.0277 µM.
`COc1cccc(C2(NC(=O)c3c(OC)cc(C(F)(F)F)cc3SC)CCCN(C)C2)c1` (racemic) [Example 91, rac-2-Methoxy-N-[3-(3-methoxy-phenyl)-1-methyl-piperidin-3-yl]-6-methylsulfanyl-4-trifluoromethyl-benzamide] registered an IC50 of 0.113 µM.
In turn, `COc1cc(C(F)(F)F)cc(SC)c1C(=O)N[C@]1(c2ccccc2)C[C@@H](C)CN(C)C1` (racemic) [Example 121, N-((3S,5R) or (3R,5S)-1,5-Dimethyl-3-phenyl-piperidin-3-yl)-2-methoxy-6-methylsulfanyl-4-trifluoromethyl-benzamide] gave an IC50 of 0.0165 µM.
The molecule `CN1CCC[C@](NC(=O)c2ccc(C(F)(F)F)cc2C2CC2)(c2ccccc2)C1` (stereo in doubt) [Example 56, 2-Cyclopropyl-N-((S)-1-methyl-3-phenyl-piperidin-3-yl)-4-trifluoromethyl-benzamide hydrochloride] displayed an IC50 of 0.162 µM. This IC50 lies about 9.8-fold higher than the previous one.
